Blank lines part the entries; values can stand above or below the compound they belong to.
Tests used:
[1] = mouse, in vivo
Method: 1. The purpose of this study is to determine tissue levels of a test article after dosing in mice.
3. Test system • Number of animals: 39 • Species/strain or breed: C57BL/6J • Age/Wt. at Arrival: 7 weeks • Sex: Female
On study day 0 animals were randomized into treatment groups based on body weight. Following enrollment, treatment was initiated and continued as indicated below. Body weights were recorded following enrollment. Sample collection time points are outlined below On study day 1, animals were necropsied as specified in Section 6.6 below.
7.6 Necropsy information • Method of euthanasia: bleed to exsanguinate followed by cervical dislocation. • Time points: N=3 at each time point; 0 (vehicle); 10 min; 30 min; 1, 2, 3 and 4h
Terminal blood samples were collected via cardiac blood draw and processed for plasma (K2 EDTA, 300-400 uL/animal. Plasma samples were stored at −80 C for shipment on dry ice for bioanalysis. From each animal, the entire brain was collected, flash frozen, and stored at −80 C for shipment on dry ice to bioanalysis.
A study was performed to collect plasma for pharmacokinetic monitoring after a single dose of R-(−)-3-hydroxybutyric acid sodium salt (“BHB”) or R-3′-hydroxybutyl (R)-3′-hydroxybutyrate (“BHB ester”) in female C57BL/6 mice. […]

[2] = test system: Neurofilament Light (NfL) Chain; assay: Neurofilament light chain in plasma after TBI; format: in vivo, C57BL/6J female mice; conditions: preliminary, data not shown
Method: Plasma collection method: Centrifuge plasma samples (EDTA tubes) at 2200×g (not RPM) for 15 minutes at room temperature. Observe separation of blood cells and plasma, with plasma layer on top. Draw off only the plasma layer and take care not to disturb buffy coat when aliquoting by leaving some plasma behind and avoiding the cell layer. Aliquot samples immediately into appropriately labeled tubes and then place them in a −80° C. freezer. […] [table]

[3] = test system: IL-1β, IL-6, IL-10, TNF-α; assay: Luminex Mouse Inflammatory Panel in cortex after TBI; format: in vivo, C57BL/6J female mice
Method: Sacrifice Schedule: • a. Day 0—animals 1-5, all groups, 4h post TBI • b. Day 1—animals 6-10, all groups, 24 h post-TBI • c. Day 14—animals 11-20, all groups, 14d post TBI
Luminex Mouse Inflammatory Panel. FIG. 9A-FIG. 9C show pg/pg total protein of IL-1β (FIG. 9A), IL-6 (FIG. 9B) and IL-10 (FIG. 9C) expressed in the cortex in each study group from FIG. 8. […] While IL-10 is generally thought of as an anti-inflammatory cytokine, it also may promote fibrotic processes [Steen, E H et al. Adv. Wound Care (New Rochelle) (2020) 9 (4): 184-98, citing O'Garra, A. et al. Immunol. Rev. ([…]) 223: 114-31]. The data for the pre+post groups are consistent with the behavioral data.

[4] = test system: weight drop model of TBI; assay: Beam-walk behavioral assay in the weight drop model of TBI; format: in vivo, C57BL/6J female mice
Description: Test System. • Number of animals: 120 (100+20 extra for TBI deaths0 • Species/Strain or Breed: C57BL/6J • Vendor: Jackson Labs • Age/Wt at Arrival: 11 weeks at arrival • Gender: Female • Age/Wt at Study Initiation: 12 weeks • Acclimation: 7 days • Housing: 3-4 animals/cage
Study Design. Animals will arrive in the facility and will have access to food and water ad libitum. On study day 0, animals will be randomized based on bodyweight. Animals will be briefly anesthetized with isoflurane and subjected to traumatic brain injury (TBI) or sham injury as listed under Injury Induction. Animals will be weighed and undergo behavior testing (Beam Walking) and necropsied according to the Necropsy section.
They will then be placed individually in the prone position in a foam bed with their heads directly under a Plexiglas tube. A brass weight (80 g) will be dropped once through the tube from a specific height (0.8 m) and will strike the head directly creating a midline impact injury. Animals will be monitored for the presence of the forearm fencing response as a sign of moderate TBI. Animals will be placed in a clean cage on a heating pad for recovery, and righting reflex recovery times will be recorded for all animals. Sham animals will undergo all the same procedures but will not be subjected to TBI. Animals will be given 0.1 mg/kg SC buprenorphine directly after TBI to reduce acute pain associated with the injury and directly after sham procedures for the purpose of experimental matching. Animals will be checked daily, per the IACUC-approved post-operative monitoring plan.
Behavioral assay—Beam Walking (Luong, T N et al. Assessment of motor balance and coordination in mice using the balance beam.” J. Vis. Exp. (2011) 49: 2376) Fine motor coordination and balance can be assessed by the beam walking assay, which is a popular test for analyzing mice's gait in an environment that challenges their ability to balance themselves. The goal of this test is for the mouse to stay upright and walk across an elevated narrow beam to a safe platform. Performance on the beam is quantified by measuring the time it takes for the mouse to traverse the beam and the number of paw slips that occur in the process. This task is particularly useful for detecting subtle deficits in motor skills and balance that may not be detected by other motor tests, such as the Rotarod.
This test takes place over 3 consecutive days: 2 days of training and 1 day of testing. On training days, each mouse crosses the 12 mm beam 3 times and then the 6 mm beam 3 times. […] Mice are placed at one end of a beam and the time required to cross to the escape box at the other end (80 cm away) is measured by the motion detectors. […]
On the test day, times to cross each beam are recorded. […]

[5] = biological target: human HCA2 (Homo sapiens, UniProt Q8TDS4); conditions: citing Taggart et al. 2005; read-out: EC50 for activation of human HCA2; cited from earlier work
[6] = citing Newman and Verdin 2017; cited from earlier work

Sequence of human HCA2 (Q8TDS4 whole entry): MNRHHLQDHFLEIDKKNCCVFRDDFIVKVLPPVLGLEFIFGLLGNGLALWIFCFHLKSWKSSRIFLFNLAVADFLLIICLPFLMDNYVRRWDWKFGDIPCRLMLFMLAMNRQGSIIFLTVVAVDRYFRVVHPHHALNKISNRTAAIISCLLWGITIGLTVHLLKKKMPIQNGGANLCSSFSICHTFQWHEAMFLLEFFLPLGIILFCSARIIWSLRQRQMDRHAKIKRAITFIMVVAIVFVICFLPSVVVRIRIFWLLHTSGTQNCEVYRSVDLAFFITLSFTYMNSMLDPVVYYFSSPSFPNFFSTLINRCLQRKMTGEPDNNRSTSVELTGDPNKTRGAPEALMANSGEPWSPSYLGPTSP

plasma levels relative to brain levels [1]: approximately ten fold
Structure (SMILES): C[C@@H](O)CCOC(=O)C[C@@H](C)O [BHB ester, R-3′-hydroxybutyl (R)-3′-hydroxybutyrate]

plasma levels relative to brain levels [1]: approximately ten fold
Structure (SMILES): C[C@@H](O)CC(=O)[O-].[Na+] [BHB salt, R-(−)-3-hydroxybutyric acid sodium salt]
NfL plasma results [2]: not significant
IL-1β expression in cortex ([3]; 24 h and 14 day time points): decreased expression
IL-6 expression in cortex ([3]; 24 h and 14 day time points): decreased expression
IL-10 expression in cortex ([3]; 24 h and 14 day time points): decreased expression
TNF-α results ([3]; data not shown): not significant
improvement in foot faults ([4]; 2× pre+post group, 1 day after TBI, IN daily): 70%
foot faults after IN delivery after TBI ([4]; as soon as day 1 after injury, greatest decrease in post and 2× pre and post groups at day 3): decreased foot faults
beam walking at day 3, all treated groups ([4]; day 3, best results in post and 2× pre+post groups): significantly improved
beam walking, treated groups vs TBI vehicle ([4]; pre, post, pre+post and 2× pre+post groups, day 1 and day 3): showed improvement in beam walking

Structure (SMILES): CC(O)CC(=O)O (stereo not drawn) [BHB, beta-hydroxybutyrate]
EC50 [5]: ~700 µM
solubility in water and blood [6]: readily soluble in water and blood
